{
  "source": "patent US20090215713A1",
  "about": "“Use of atp for the manufacture of a medicament for the prevention and treatment of oxidative stress and related conditions” (priority 2004, published 2009)",
  "key": {"TNF-α": {"system": "TNF-α", "test": "LPS+PHA-induced TNF-α secretion in whole blood from healthy subjects (ELISA)", "type": "cell-based, human", "protocol": "(§1) FIG. 7 Effect of ATP on LPS+PHA-induced TNF-α secretion in whole blood from healthy subjects. The whole blood was exposed to 10 μg/ml LPS and 1 μg/ml PHA with indicated concentrations of ATP for 24 h. The TNF-α released into the supernatants was analyzed using the ELISA method. Results are expressed in percentage, 100% being the TNF-α release under stimulation by LPS+PHA without ATP. […] Data are expressed as the mean values; error bars represent SEM. *, different from control (stimulation by LPS+PHA without ATP) (P<0.05).\nFIG. 13 Effect of different purinergic compounds on LPS+PHA-induced TNF-α secretion in whole blood. The whole blood was exposed to 10 μg/ml LPS and 1 μg/ml PHA with the indicated purinergic compounds at the concentration of 300 μM for 24 h. The TNF-α released into the supernatant was analyzed using the ELISA method. Results are expressed in percentage, 100% being the TNF-α release under stimulation by LPS+PHA without addition of a purinergic compound (control). […] The TNF-α release induced by LPS+PHA from whole blood was not inhibited by UTP, UDP or CTP. Data are expressed as the mean values; error bars represent SEM.\n(§2) Blood was collected from 8 healthy subjects in heparin containing vacutainer tubes. All incubations were performed in duplicate. ATP was dissolved in RPMI 1640 culture medium, at a final concentration of 1-300 μM, and blood pre-incubated with ATP at 5% CO2 at 37 DC for 30 min. After stimulation with LPS en PHA (10 and 1 μg/ml final concentration, respectively), the plates were incubated in 5% CO2 at 37° C. for 24 h. Cell-free supernatant fluids were then collected by centrifugation (6000 rpm, 10 min at 4° C.) and stored at −20° C. until tested for presence of cytokines. All cytokines were quantified by means of PeliKine Compact human ELISA kits (CLB/Sanquin, The Netherlands), based on appropriate and validated sets of monoclonal antibodies.\nWhole blood was collected and stimulated with LPS+PHA as described for Experiment 2. ATP, dissolved in RPMI 1640 culture medium, was added to the blood at a final concentration of 1-1000 μM. The agonists were added in the same way as ATP, however their stock solutions are prepared in PBS and further diluted in medium. All incubations are performed in duplicate."}, "IL-10": {"system": "IL-10", "test": "LPS+PHA-induced IL-10 secretion in whole blood from healthy subjects (ELISA)", "type": "cell-based, human", "conditions": "indicated ATP concentrations, 24 h", "protocol": "as §1, with “8” for “7”, “IL-10” for “TNF-α”\nas §2\nWhole blood was collected and stimulated with LPS+PHA as described for Experiment 2. […]"}, "IL-6": {"system": "IL-6", "test": "LPS+PHA-induced IL-6 secretion in whole blood under oxidative stress (H2O2)", "type": "cell-based, human", "conditions": "absence or presence of H2O2 (1 and 10 mM)", "protocol": "FIG. 12 Effect of ATP on LPS+PHA-induced IL-6 secretion in whole blood from healthy subjects under conditions of oxidative stress. Two concentrations of H2O2 (1 and 10 mM) were added to whole blood, together with the indicated concentrations of ATP. Then, blood was exposed to 10 μg/ml LPS and 1 μg/ml PHA, and incubated for 24 h. The IL-6 released into the supernatants was analyzed using the ELISA method. […] Data are expressed at the mean values; error bars represent SEM.\nWhole blood of healthy subjects was collected as described for Experiment 2, and pre-incubated with 1 or 10 mM H2O2 at 5% CO2 and 37° C. for 15 min. Then, ATP was added to the blood at final concentrations of 1-300 μM for the 30 min incubation step, and then incubated as in Experiment 2 with LPS/PHA for 24 hours."}, "[1]": {"test": "ATP infusions in a patient with rheumatoid arthritis", "type": "in vivo, human", "protocol": "(§3) Patients with different diseases received infusions of 10-75 μg/kg·min over 8-24 h, at intervals of 1-4 weeks in different randomized clinical trials. In all cases, the first. infusion was given under clinical supervision, subsequent infusions were given in the setting of private homes. Preliminary results in small numbers of patients with persistent rheumatoid arthritis, chronic fatigue syndrome, and cancer in the pre-terminal stage, and lung cancer during curative radiotherapy are given below.\n[…] […] DAS score had decreased from 5.80 to 3.09 and CRP had decreased from 43 to 6 mg/L.; all other blood values were normal. MD's conclusion: marked decease of disease activity."}, "[2]": {"test": "ATP infusions in patients with chronic fatigue syndrome (double-blind)", "type": "in vivo, human", "protocol": "as §3\nIn a double-blind design, 8 out of 9 patients with chronic fatigue syndrome who had been treated with ATP (8 infusions of 24 h), spontaneously reported the following unexpected beneficial effects of ATP infusion: • less pain on the day after the infusion • feeling better during the 8-week infusion period than before or afterwards • more physical energy on the day after the infusion • felt better during the complete infusion period: less pain, better performance status, happier, mentally stronger, less tired, sleeping better • fewer ulcers during the infusion period • feeling less weak/feeble on the day after the infusion, feeling muscles “in a positive sense” In 5 out of 9 patients, these effects were already noted on the day after the first ATP infusion. […] In the placebo group, not even one out of 9 patients spontaneously reported any of such improvements."}, "[3]": {"test": "Randomized ATP infusions in non-small-cell lung cancer patients, stage IIIB and IV", "type": "in vivo, human", "protocol": "Patients with non-small-cell lung cancer, stage IIIB and IV, in the palliative treatment stage, were randomized to receive either ATP infusions (total of 10 infusions over 24 weeks) or no treatment. Outcome assessment (quality of life, blood values) was performed at regular intervals."}, "[4]": {"conditions": "previous study, ATP infusion during 30 hrs; cited from earlier work"}, "[5]": {"system": "mice bearing colon tumour", "conditions": "daily intraperitoneal injections of 25 mmol/L for 10 days; cited from earlier work"}, "[6]": {"conditions": "cited from earlier work"}, "[7]": {"conditions": "after 10 weekly infusions, 10-15 μg/kg·min"}},
  "note": "Entries after “also recorded” stand apart in the source; their conditions may differ.",
  "data": [
    {"molecule": "Nc1ncnc2c1ncn2[C@@H]1O[C@H](COP(=O)(O)OP(=O)(O)OP(=O)(O)O)[C@@H](O)[C@H]1O", "note": "[ATP, Adenosine 5′-triphosphate]", "values": [
      {"measurement": "effect of purinergic compound on LPS+PHA-induced TNF-α release", "setting": "TNF-α; 300 μM, 24 h", "result": "greatest inhibition"},
      {"measurement": "effect on inhibiting TNFα and stimulating IL-10 production", "setting": "TNF-α; LPS-PHA stimulated whole blood, Experiment 4", "result": "more effective"},
      {"measurement": "effect on LPS+PHA-induced TNF-α release", "setting": "TNF-α; indicated ATP concentrations, 24 h", "result": "significantly inhibited"},
      {"measurement": "effect on LPS+PHA-induced IL-10 release", "setting": "IL-10", "result": "significantly increased"},
      {"measurement": "effect on LPS+PHA-induced IL-6 release", "setting": "IL-6", "result": "no effect; also recorded: not influenced"},
      {"measurement": "joint swelling and pain", "setting": "[1]; after 10 infusions", "result": "markedly decreased"},
      {"measurement": "CRP", "setting": "[1]; [7]", "result": 6, "unit": "mg/L"},
      {"measurement": "DAS score", "setting": "[1]; [7]", "result": 3.09},
      {"measurement": "CRP", "setting": "[1]; before ATP", "result": 43, "unit": "mg/L"},
      {"measurement": "DAS score", "setting": "[1]; before ATP", "result": 5.80},
      {"measurement": "patients spontaneously reporting beneficial effects", "setting": "[2]; 8 infusions of 24 h", "result": "8 out of 9"},
      {"measurement": "patients noting these effects on the day after the first ATP infusion", "setting": "[2]; human, in vivo", "result": "5 out of 9"},
      {"measurement": "plasma lactate dehydrogenase concentration", "setting": "[3]; 24-week study period", "result": "remained stable"},
      {"measurement": "plasma triglyceride concentration", "setting": "[3]; 24-week study period", "result": "remained stable"},
      {"measurement": "decreased sexual interest, compared to the control group", "setting": "[3]; human, in vivo", "result": "normalization"},
      {"measurement": "dizziness, compared to the control group", "setting": "[3]; human, in vivo", "result": "reduction"},
      {"measurement": "dry mouth, compared to the control group", "setting": "[3]; human, in vivo", "result": "improvement"},
      {"measurement": "life-threatening side effects", "setting": "[4]", "result": "did not find any"},
      {"measurement": "effect on host weight loss", "setting": "[5]", "result": "significant inhibition"},
      {"measurement": "body weight", "setting": "[6]; phase I/II, 2 to 3 intravenous courses of 96 hours", "result": "stabilisation"},
      {"measurement": "average weight gain", "setting": "[6]; phase II, after 4 ATP courses", "result": 1.3, "unit": "kg"}
    ]}
  ]
}
